In patent US20200253877A1, “GEMCABENE, PHARMACEUTICALLY ACCEPTABLE SALTS THEREOF, COMPOSITIONS THEREOF AND METHODS OF USE THEREFOR” (NEUROBO PHARMACEUTICALS, INC., priority 2018, published 2020):

How the values were obtained:
[1] = Effect of steady-state gemcabene 600 mg on single-dose pharmacokinetics of ON 1/35 (ethinyl estradiol/norethindrone) in healthy female subjects; type: in vivo, human; details: 600 mg daily at steady state; single dose ON 1/35
Experimental: (§1) An open-label, two-sequence, cross-over study to assess the steady-state effects of gemcabene calcium on the single-dose pharmacokinetics (PK) of oral contraceptive tablets in healthy female subjects was conducted with 300 mg tablets containing gemcabene calcium salt hydrate Crystal Form 1 having PSD90 of 52 μm (film-coated Tablet F).
(§2) The population for this study was generally healthy, adult female subjects of childbearing potential (≥18 to ≤35 years of age). This population supports the overall objective of the study to evaluate the effect of 600 mg of gemcabene calcium salt hydrate Crystal Form 1 having PSD90 of 52 μm at steady-state on the PK of a single dose of ON 1/35 (Ortho Novum 1/35; combined ethinyl estradiol/norethindrone oral contraceptive). The primary objective of this study was to assess the effect of daily 600 mg of gemcabene calcium salt hydrate Crystal Form 1 having PSD90 of 52 μm at steady-state on the pharmacokinetics (PK) of ON 1/35. The secondary objectives of this study were to assess the safety and tolerability of daily gemcabene 600 mg in combination with a single-dose ON 1/35 and to assess the steady-state PK of 600 mg of gemcabene calcium salt hydrate Crystal Form 1 having PSD90 of 52 μm (film-coated Tablet F×2). […]

[2] = Tablet dissolution in pH 5.0 potassium acetate, USP apparatus 2, UV/Vis fiber optic quantitation (216 nm to 230 nm); type: physicochemical; details: film-coated Tablets D, F2, C3, ES (average n=6)
Experimental: Tablet's gemcabene dissolution profiles were evaluated using an ultra-violet/visible (uv/vis) light absorption methodology in which dissolved gemcabene in the dissolution media was directly measured inside the dissolution vessel. This method of analysis allowed for real-time measurement of gemcabene dissolution at multiple, closely spaced sampling intervals. This method provides a higher resolution dissolution profile than could be obtained with the HPLC analysis methodology used in Example 13 and allowed for detection of differences in dissolution characteristics between the various gemcabene calcium polymorphs. […] FIG. 56 compares the gemcabene dissolution profiles generated using these two methodologies and Table 28 reports the gemcabene dissolution profiles and % RSD for n=6 dissolution testing conducted with both methods of analysis.

[3] = 12-week placebo-controlled study in hypercholesterolemia patients on statins: safety and tolerability; type: in vivo; details: 600 mg QD, 12 weeks
Experimental: High-risk patients including some, but not all those with heterozygous familial hypercholesterolemia (HeFH) or atherosclerotic cardiovascular disease (ASCVD) on appropriate diet and stable statin therapy for at least 12 weeks and LDL-C ≥100 mg/dL (2.59 mmol/L) and triglycerides <500 mg/dL (5.65 mmol/L) were randomized into a 12-week, placebo-controlled, parallel-group, double-blind study to assess the efficacy of gemcabene calcium salt hydrate Crystal Form 1 (PSD90=52 μm) 600 mg (300-mg film-coated Tablet D×2) QD on LDL-C and other lipoproteins and hsCRP (high-sensitivity C-reactive protein). Safety and tolerability were also evaluated. The patients were stratified by high- or moderate-intensity statin therapy, with or without ezetimibe, with a target of 52 patients (26 patients on 600 mg gemcabene calcium salt hydrate Crystal Form 1 as administered by 2×film-coated Tablet D and 26 patients on placebo (“placebo”)) in each stratum. […] Mean baseline LDL-C for all patients was approximately 134 mg/dL (3.48 mmol/L) with most patients in the high-intensity statin stratum on atorvastatin and most patients in the moderate-intensity stratum on either simvastatin or atorvastatin.
33 of 54 patients (61.1%) in the film-coated Tablet D group and 24 of 51 patients (47.1%) in the placebo group who reported at least one AE during the study. […]

[4] = Aqueous solubility of gemcabene calcium salt forms over 24 hours (HPLC concentration, XRPD form); type: physicochemical; details: approximately 25° C.
Experimental: To each vial, approximately 3 mL to 4 mL water were added and the samples were mixed at ambient temperature (approximately 25° C.) for approximately 24 hours. […] From each vial, samples of the slurries were taken after 1, 4, and 24 hours, which were separated by centrifugation. The solids were separated by centrifugation and analyzed by XRPD for solid form and by HPLC for concentration.

[5] = Steady-state plasma gemcabene pharmacokinetics (600 mg daily) in healthy female subjects; type: in vivo, human
Experimental: as §1, §2

[6] = human, in vivo
Experimental: as §1
The population for this study was generally healthy, adult female subjects of childbearing potential (≥18 to ≤35 years of age). This population supports the overall objective of the study to evaluate the effect of 600 mg of gemcabene calcium salt hydrate Crystal Form 1 having PSD90 of 52 μm at steady-state on the PK of a single dose of ON 1/35 (Ortho Novum 1/35; combined ethinyl estradiol/norethindrone oral contraceptive). The primary objective of this study was to assess the effect of daily 600 mg of gemcabene calcium salt hydrate Crystal Form 1 having PSD90 of 52 μm at steady-state on the pharmacokinetics (PK) of ON 1/35. The secondary objectives of this study were to assess the safety and tolerability of daily gemcabene 600 mg in combination with a single-dose ON 1/35 and to assess the steady-state PK of 600 mg of gemcabene calcium salt hydrate Crystal Form 1 having PSD90 of 52 μm (film-coated Tablet F×2).
Throughout the study, 2 (12.5%) subjects in Treatment A; 4 (26.7%) subjects during gemcabene alone treatment of Treatment B, and 3 (20%) subjects during gemcabene with ON 1/35 treatment of Treatment B, had treatment-emergent adverse events (TEAEs). […] All TEAEs were considered to be mild or moderate in severity.

[7] = Steady-state gemcabene pharmacokinetics in familial hypercholesterolemia patients (300, 600, 900 mg/day); type: in vivo, human; details: for Tlast: after 28 daily oral doses (film-coated Tablet D), FH patients, median
Experimental: Additional (trough) samples were collected pre-dose on Day 14, Day 42, Day 70, and at the Early Termination Visit (if applicable). Plasma from these samples were analyzed for gemcabene concentrations and the data used for PK analysis. […] PK parameter estimates were derived by standard non-compartmental analysis methods using a validated installation of Phoenix® WinNonlin® version 6.4. The actual sampling times were used in the PK parameter calculations. All plasma concentrations reported as missing were treated as missing. […] The following gemcabene PK parameters were calculated for each patient from the plasma concentration-time data: AUClast and AUC(0-24) were calculated by numeric integration using the trapezoidal rule with linear up and log down interpolation. […] The individual patient and gemcabene concentration-time data are listed using the number of significant digits or decimal places provided by the bioanalytical lab and nominal sample times, and summarized descriptively in tabular formats by dose level, and visit (for trough samples).

[8] = 300-900 mg/day, dose proportionality
[9] = dose range 300 mg/day to 900 mg/day

## CC(C)(CCCCOCCCCC(C)(C)C(=O)O)C(=O)O.[Ca] [6-(5-Carboxy-5-methyl-hexyloxy)-2,2-dimethylhexanoic acid calcium]
[1]
  drug-drug interaction with ethinyl estradiol and norethindrone: mild drug-drug interaction
[2]
  gemcabene dissolution rate of film-coated tablets, compared among polymorphs: intermediate profile
[3]
  serious adverse events and deaths: no serious adverse events (AEs) and no deaths
[4]; slurry in water, 24 hours
  change in polymorphic form during the test period (XRPD): no change in polymorphic form
[4]; slurry in water, sampled 1, 4, 24 hours
  change in concentration (HPLC) during the experiment: small increase
[4]; thermodynamic from solid, water, 1 h, read-out: Conc. (aqueous solubility)
  solubility at 1 h: 96.2 mg/mL
[4]; thermodynamic from solid, water, 4 h, read-out: Conc. (aqueous solubility)
  solubility at 4 h: 98.3 mg/mL
[4]; thermodynamic from solid, water, 24 h, read-out: Conc. (aqueous solubility)
  solubility at 24 h: 99.5 mg/mL
[4]; water, 1 h
  Form (XRPD) of solid in water slurry: Form 1
[4]; water, 4 h
  Form (XRPD) of solid in water slurry: Form 1
[4]; water, 24 h
  Form (XRPD) of solid in water slurry: Form 1

## CC(C)(CCCCOCCCCC(C)(C)C(=O)O)C(=O)O [gemcabene, 6-(5-carboxy-5-methyl-hexyloxy)-2,2-dimethyl-hexanoic acid]
[5]
  mean Cmin: 102.68 µg/mL
[6]; female
  subjects with a drug-related TEAE (constipation): 1 subject
[6]
  serious adverse events (SAEs): no serious adverse events
  tolerability: well tolerated
[7]; 300 mg/day, n = 8
  Tlast: 25.2 h
[7]; 600 mg/day, n = 8
  Tlast: 24.6 h
[7]; 900 mg/day, n = 7
  Tlast: 23.8 h
[7]; [8]
  upper limit of the 95% CI of slope, log AUClast vs log dose: 0.9993
  upper limit of the 95% CI of slope, log Cmax vs log dose: 0.9767
[7]; daily dosing, individual trough concentrations
  time to attain steady state: ≤ 14 days
[7]; [9]
  AUC(0-24) dose proportionality: increased dose proportionally
  Cmax dose proportionality: slightly less than dose proportional
